Patent publication US11077090B2, “Compounds and compositions and uses thereof” (Sunovion Pharmaceuticals Inc., priority 2016, dated 2021)

Legend:
Assay type in all cases: in vivo
[1] = tested on: compound-treated mice; experiment: Neuropharmacological assay (SmartCube): behavioral activity signature and minimal effective dose; conditions: for Potency: minimal effective dose (MED), binned: MED = dose having 50% or more total activity; for AD: ADHD (probability of activity signature) / AG: analgesic (probability of activity signature) / AX: anxiolytic (probability of activity signature) / CE: cognitive enhancer (probability of activity signature) / DP: anti-depressant (probability of activity signature) / MS: mood stabilizer (probability of activity signature) / PS: anti-psychotic (probability of activity signature) / SD: sedative hypnotic (probability of activity signature) / UN: uncharacterized CNS activity (probability of activity signature): i.p. 15 min before test, most efficacious dose(s)
Summary of the method: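 Video-recorded behavior is compared algorithmically against a reference-compound database, yielding class probabilities (best dose reported). Compounds given i.p. in NMP/PEG/propylene glycol 15 min pre-test at 3 doses; potency as MED, the dose (mpk, range usually 0.3–30) reaching ≥50% total activity.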

[2] = tested on: Male C57Bl/6J mice; experiment: Marble burying test; parameters: key: −: No reduction in number of marbles buried; +: Significant reduction in number of marbles buried (P < 0.05 vs vehicle)
Protocol: The marble burying assay is used to evaluate the anxiolytic activity of a test compound. After placement in a novel cage containing glass marbles, mice will bury the marbles. Acute administration of anxiolytic agents, as well as antidepressants, decrease this activity at non-sedating doses. Male C57Bl/6J mice from Jackson Laboratories were used in this study and were acclimatized to the experimental room for at least 1 hour prior to testing. Mice (n=10 per group) were administered sterile water or test compound intraperitoneally (i.p.) or orally by gavage (p.o.), or the positive control chlordiazepoxide (15 mg/kg, i.p.), in 10 mL/kg injection volumes, and returned to their home cages for a 30-minute pretreatment period. The mice were then placed individually in clean cages, containing hard wood bedding and twenty black marbles placed in spaced rows of 4×5. After a 30-minute test session, the number of buried marbles was counted. A marble was considered buried if it was pushed at least two thirds into the bedding. Locomotor activity was monitored by measuring the distance traveled using an overhead camera and Video Tracker Software (ViewPoint Life Sciences Software, France). A reduction in the number of marbles buried relative to the vehicle condition indicates an anxiolytic drug-like effect.

[3] = tested on: male Sprague-Dawley rats; experiment: Stress induced hyperthermia (SIH) assay; parameters: key: −: No change in Delta T ([…]T); +: Significant decrease in Delta T ([…]T) (P < 0.05 vs vehicle)
Excerpt: Stress-induced hyperthermia (SIH), mediated by the autonomic nervous system, is well known to occur prior to and during exposure to stress and/or anxiety-inducing situations. In many human anxiety disorders, it occurs as an integral part of the pathology and is often considered a representative symptom of the disease, e.g. in generalized anxiety disorder as defined in DSM-IV. In rodents, acute administration of anxiolytic drugs, such as buspirone or chlordiazepoxide (CDP), are known to reduce the SIH response to stressors such as handling, noise, heat, novelty, or pain. The test involves two measures of rectal temperature repeated in the same animal with a 10-minute interval. On the day prior to testing, male Sprague-Dawley rats from Envigo (n=10 per group) were brought to the experimental room approximately one hour before scheduled lights out and singly housed overnight with food and water ad libitum. On the morning of the experiment, animals were first injected with either vehicle or test compound orally by gavage, or CDP (10 mg/kg, i.p.). One hour following injection, each animal was removed from the holding cage and held in a supine position while the rectal temperature was measured by slowly inserting a rectal probe into the animal's rectum at a length of approximately 0.5 cm. The rectal probe was attached to a PhysiTemp digital thermometer (Fisher Scientific) which provides temperature readings at 0.1° C. accuracy. The probe remained inside the animal for approximately 5 seconds or until body temperature reaches stability. This temperature was recorded as the baseline rectal temperature (T1). The animal was immediately placed back to the holding cage and after a 10-min interval the second rectal temperature (T2) was taken using the same procedure as in measuring T1. Before each insertion, the rectal probe was cleaned with an alcohol pad and lubricated with sterile K-Y jelly. All SIH studies were conducted between 8:00-11:00 a.m. The SIH response was calculated as the difference in temperature between the second and first temperature reading (Delta T, […]T). A reduction in […]T relative to the vehicle condition indicates an anxiolytic drug-like response.

[4] = tested on: Male C57Bl/6J mice; experiment: Amphetamine induced hyperlocomotion assay; parameters: key: #: Significant increase in total distance traveled (P < 0.05 vs vehicle + AMPH group); −: No change in total distance traveled; Significant decrease in total distance traveled (P < 0.05 vs vehicle + AMPH group); conditions: 3 mg/kg PO Compound + AMPH
Protocol: Psychostimulants such as amphetamine (AMPH) are frequently used to induce or mimic a manic-like or psychotic-like state. AMPH administration to rodents increases horizontal locomotion, vertical rearing and repetitive stereotyped behaviors, and typical antipsychotic drugs, such as haloperidol, can reduce these behaviors. The antimanic/antipsychotic-like effects of test compounds were evaluated in male C57Bl/6J mice from Jackson Laboratories Mice were acclimatized to the experimental room for at least 1 hour prior to testing. The mice (n=10 per group) were administered vehicle or test compound orally by gavage (10 mL/kg injection volume) and placed individually in the novel open field (OF) chambers (Med Associates) for 30 minutes of baseline activity measurement. Mice were then injected with either water or AMPH (4 mg/kg, i.p., 10 mL/kg) and placed back in the same individual OF chambers for a 60-minute testing session during which the effects of test compounds on stimulant-induced behaviors (total distance traveled, rearing and stereotypy) were measured. A reduction in total distance traveled relative to the vehicle+AMPH condition indicates an antimanic/antipsychotic drug-like response.

[5] = tested on: Adult male AJ mice; experiment: Tail suspension test (TST); parameters: key: −: No decrease in Mean Total Time Immobile; +: Significant decrease in Mean Total Time Immobile (P < 0.05 vs vehicle); conditions: 3 mg/kg PO
Excerpt: The tail suspension test (TST) is a rodent screening test for potential (human) antidepressant drugs. It is based on the assumption that an animal will actively try to escape an aversive (stressful) stimulus. If escape is impossible, the animal will eventually stop trying (“give up”). In the TST, a mouse is suspended by the tail so that its body dangles in the air, head downward. Mice initially struggle to face upward and climb to a solid surface. When the animal stops struggling and hangs immobile it is considered to have “given up”. Shorter periods of immobility are characteristic of antidepressant-like activity. Accordingly, longer periods of immobility are considered indicative of a depressive-like state. It has been shown that treatment with an antidepressant drug will decrease the time the animal spends immobile. See generally L. Steru et al., Psychopharmacology (Berl). 1985; 85(3):367-70; B. Thierry et al., Psychopharmacology 1986; 90:284-85.
Adult male AJ mice from Jackson Laboratories received vehicle (sterile water) or test compound orally by gavage, or the positive control desipramine (20 mg/kg, i.p.), in 10 mL/kg injection volumes, 30 min before being subjected to the Tail Suspension Test. In this test, mice are placed in the Tail Suspension chambers (white polyvinylchloride cubicles measuring 33×33×31.75 cm Med Associates, Inc. St. Albans, Vt.) by a piece of transparent (Scotch®) tape attached to the tail, from about the mid-tail, with approximately 2 cm of tape past the end of the tail for 10 min during which the time spent immobile is measured. A reduction in total time immobile relative to the vehicle condition indicates an antidepressant drug-like response.

[6] = tested on: Male C57Bl/6J mice; experiment: Prepulse inhibition of startle (PPI); parameters: key: −: No change in PPI; +: Significant increase in PPI at one pre-pulse intensity (P < 0.05 vs vehicle); ++: Significant increase in PPI at two pre-pulse intensities (P < 0.05 vs vehicle); +++: Significant increase in PPI at three pre-pulse intensities (P < 0.05 vs vehicle); conditions: 3 mg/kg PO
Excerpt: The acoustic startle is an unconditioned reflex response to an external auditory stimulus. Prepulse inhibition of startle (PPI) refers to the reduction in the startle response caused by the presentation of a low-intensity auditory stimulus prior to the startle stimulus. The PPI paradigm is used for the study of schizophrenia and antipsychotic action due to the similarities between the results from human and rodent studies. PPI has been used as a tool for the assessment of deficiencies in sensory-motor gating observed in schizophrenia and to screen for potential antipsychotic drugs. Various psychotomimetic drugs, such as phencyclidine (PCP), can disrupt PPI. In mice, antipsychotic drugs such as haloperidol can increase PPI and clozapine can reverse the disruption of PPI induced by PCP.
Male C57Bl/6J mice from Jackson Laboratories were placed in the PPI chambers (Med Associates) for a 5 min session of white noise (70 dB) habituation. After the habituation period, the test session was initiated. The session started with a habituation block of 6 presentations of the startle stimulus alone, followed by 10 PPI blocks, each of which consisted of 6 different types of trials. Trial types were: ‘null’ (no stimuli), ‘startle’ (120 dB), ‘startle plus prepulse’ (4, 8, and 12 dB over background noise, i.e., 74, 78, or 82 dB) and ‘prepulse’ (82 dB). Trial types were presented in a random order within each block. Each trial started with a 50 ms stimulus-free period during which baseline movements were recorded. This was followed by a subsequent 20 ms period during which the prepulse stimulus was presented and responses to the prepulse measured. After a further 100 ms period, the startle stimulus was presented for 40 ms and responses recorded for 100 ms from startle onset. Responses were sampled every ms. The inter-trial interval was variable with an average of 15 s (range from 10 to 20 s). In ‘startle’ trials, the basic auditory startle response was measured. The basic startle response was calculated as the mean startle response of all ‘startle’ trials (i.e., excluding the first habituation block). In ‘startle plus prepulse’ trials, the degree of inhibition of the normal startle was calculated and expressed as a percentage of the basic startle response.
Mice were treated with vehicle or test compound orally by gavage, or haloperidol (1 mg/kg, i.p.), in 10 mL/kg injection volumes, 30 min prior to PPI test. The PPI enclosures were cleaned following each test. An increase in the percent PPI relative to the vehicle condition indicates an antipsychotic drug-like response.

Compound: Cc1cccc2c1[C@@H](N)[C@@H](C)OC2 (single isomer, unassigned) [Example 170]
- Potency: minimal effective dose (MED), binned [1]: A (≤3 mpk)
- AD: ADHD (probability of activity signature) [1]: + (LOQ ≤ + <5%)
- AG: analgesic (probability of activity signature) [1]: ++ (5% ≤ ++ <25%)
- AX: anxiolytic (probability of activity signature) [1]: ++ (5% ≤ ++ <25%)
- CE: cognitive enhancer (probability of activity signature) [1]: ++ (5% ≤ ++ <25%)
- DP: anti-depressant (probability of activity signature) [1]: ++ (5% ≤ ++ <25%)
- MS: mood stabilizer (probability of activity signature) [1]: + (LOQ ≤ + <5%)
- PS: anti-psychotic (probability of activity signature) [1]: ++ (5% ≤ ++ <25%)
- SD: sedative hypnotic (probability of activity signature) [1]: + (LOQ ≤ + <5%)
- UN: uncharacterized CNS activity (probability of activity signature) [1]: ++++ (50% ≤ ++++)
- Marbles Buried ([2]; 3 mg/kg (i.p.)): −
- Marbles Buried ([2]; 10 mg/kg (i.p.)): +
- Delta T ([…]T) ([3]; 10 mg/kg PO): +
- Delta T ([…]T) ([3]; 30 mg/kg PO): +

Compound: Cc1ccc2c(c1)[C@H](N)[C@H](C)OC2 [Example 157]
- Potency: minimal effective dose (MED), binned [1]: A (≤3 mpk)
- AD: ADHD (probability of activity signature) [1]: + (LOQ ≤ + <5%)
- AG: analgesic (probability of activity signature) [1]: ++ (5% ≤ ++ <25%)
- AX: anxiolytic (probability of activity signature) [1]: ++ (5% ≤ ++ <25%)
- CE: cognitive enhancer (probability of activity signature) [1]: ++ (5% ≤ ++ <25%)
- DP: anti-depressant (probability of activity signature) [1]: ++ (5% ≤ ++ <25%)
- MS: mood stabilizer (probability of activity signature) [1]: ++ (5% ≤ ++ <25%)
- PS: anti-psychotic (probability of activity signature) [1]: +++ (25% ≤ +++ <50%)
- SD: sedative hypnotic (probability of activity signature) [1]: + (LOQ ≤ + <5%)
- UN: uncharacterized CNS activity (probability of activity signature) [1]: ++++ (50% ≤ ++++)
- Marbles Buried ([2]; 3 mg/kg (i.p.)): −
- Marbles Buried ([2]; 10 mg/kg (i.p.)): +
- Delta T ([…]T) ([3]; 3 mg/kg PO): +
- Delta T ([…]T) ([3]; 10 mg/kg PO): +
- Delta T ([…]T) ([3]; 30 mg/kg PO): +

Compound: N[C@H]1COCc2ccc3ccccc3c21 (single isomer, unassigned) [Compound 118]
- Marbles Buried ([2]; 3 mg/kg (p.o.)): −
- Total Distance Traveled [4]: −
- Mean Total Time Immobile [5]: −
- Effect on Pre-Pulse Inhibition (PPI) [6]: −

Compound: N[C@H]1COCc2ccc(F)cc21 (single isomer, unassigned) [Compound 114]
- Marbles Buried ([2]; 1 mg/kg (p.o.)): −
- Total Distance Traveled [4]: −
- Mean Total Time Immobile [5]: −
- Effect on Pre-Pulse Inhibition (PPI) [6]: −
